Measurements published in patent US6861554B2, “Creatine salt having enhanced nutritional and therapeutic efficacy and compositions containing same” (Biosalts s.r.l., priority 2001, dated 2005).

Experiments:
[1] = tested on: muscle cells; assay: increase in glucose uptake by the muscle cells with respect to insulin; type: cell-based
[2] = stability and hygroscopicity of the salt; type: physicochemical

Compound	Glucose uptake (percentage of increase in the glucose uptake by the muscle cells with respect to insulin) ([1]; 2.5 grams of substance)	Glucose uptake (percentage of increase in the glucose uptake by the muscle cells with respect to insulin) ([1]; 5.0 grams of substance)	hygroscopicity [2]	stability [2]
CN(CC(=O)O)C(=N)N.O [Creatine monohydrate, creatine monohydrate]	1-2%			
NCCS(=O)(=O)O [Taurine, 2-aminoethanesulphonic acid]	15-18%			
Creatine Taurinate		25-28%	non hygroscopic	stable
